Measured values: ChEMBL document CHEMBL1151639, “Antibacterial sesquiterpene aryl esters from Armillaria mellea” (J Nat Prod, 1985)
Active and inactive are the calls of the source. No cut-off for these calls is given here.

Legend:
Assay type in all cases: functional, organism-based
Bacillus subtilis = assay: Antibacterial activity against Bacillus subtilis 5262 ATCC 6633
Staphylococcus aureus = assay: Antibacterial activity against Staphylococcus aureus 209P ATCC 53156
Pseudomonas aeruginosa = assay: Antibacterial activity against Pseudomonas aeruginosa
Escherichia coli = assay: Antibacterial activity against Escherichia coli

CO[C@]12C(C=O)=C[C@@H]3CC(C)(C)C[C@@H]3[C@@]1(C)C[C@H]2OC(=O)c1c(C)cc(O)cc1O
Activity (Bacillus subtilis): Active | Activity (Staphylococcus aureus): Active | Activity (Pseudomonas aeruginosa): inactive | Activity (Escherichia coli): inactive
